In US7741479B2, “Urea inhibitors of MAP kinases” (Locus Pharmaceuticals, Inc., priority 2004, dated 2010):

Each compound was assayed against T1, p38 (Homo sapiens, UniProt Q16539) (assay: Protein Kinase Assay (33P incorporation from γ-[33P]ATP into GST-ATF-2 substrate)). Details: compound at 10 μM.
T1 construct: made in house
T1 sequence (Q16539 whole entry): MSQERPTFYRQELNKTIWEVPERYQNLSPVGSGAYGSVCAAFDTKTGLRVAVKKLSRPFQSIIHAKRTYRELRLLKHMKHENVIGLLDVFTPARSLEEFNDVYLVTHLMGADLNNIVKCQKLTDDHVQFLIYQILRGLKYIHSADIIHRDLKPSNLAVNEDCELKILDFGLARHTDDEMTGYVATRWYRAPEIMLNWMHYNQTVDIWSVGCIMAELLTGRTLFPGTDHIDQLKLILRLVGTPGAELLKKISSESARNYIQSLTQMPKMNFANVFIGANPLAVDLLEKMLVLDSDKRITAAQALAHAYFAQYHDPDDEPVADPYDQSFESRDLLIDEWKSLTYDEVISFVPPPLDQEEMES
Format: biochemical
Method: Human non-activated p38 kinase (MW=43 kDa) was purified according to the protocol described herein. Chemicals were purchased from Calbiochem. Fluorescence characterizations were conducted using a Cary Eclipse (Varian Analytical Instruments, Walnut Creek, Calif.). Research-grade CM5 sensor chips and coupling reagents (N-ethyl-N′-dimethylaminopropylcarbodiimide (EDC) N-hydroxysuccinimide (NHS), and 1 M ethanolamine HCl, pH 8.5) were purchased from Biacore AB (Uppsala, Sweden). The biosensor analyses were conducted using a Biacore 3000 SPR instrument. The kinetic analyses were carried on a Molecular Devices spectrophotometer (Molecular Devices Corporation, CA, USA).
Protein Kinase Assay. The protein kinase activity of p38 was determined by measuring the incorporation of ^33P from γ-[^33P]ATP into the GST-ATF-2 substrate, amino acids 19-96 (Upstate, NY USA). […] Compounds were preincubated with 10 nM p38 for 20 min at 30° C.; the reactions were initiated by the addition of GST-ATF2 and ATP and incubated for 70 min at 30° C. before being stopped by the addition of 10 μL of 600 mM phosphoric acid. The phosphorylated substrate was captured on phosphocellulose 96-well plate (Millipore MAPHNOB 10), washed with 100 mM phosphoric acid, and counted in a BeckmenCoulter LS6500 liquid scintillation counter.
CC(C)(C)c1cc(C(=O)N2CCS(=O)(=O)CC2)c(NC(=O)Nc2ccc(Cl)cc2)s1 [Example 1, 1-[5-tert-butyl-3-(1,1-dioxo-1λ^6-thiomorpholine-4-carbonyl)thiophen-2-yl]-3-(4-chlorophenyl)urea] showed an inhibition at 10 µM of 76 to 100%. Compound CC(C)(C)c1cc(C(=O)N2CCS(=O)(=O)CC2)c(NC(=O)Nc2cccc3ccccc23)s1 [Example 2, 1-[5-tert-butyl-3-(1,1-dioxo-1λ^6-thiomorpholine-4-carbonyl)thiophen-2-yl]-3-naphthalen-1-ylurea] has an inhibition at 10 µM of 76 to 100%. For CC(C)(C)c1cc(CN2CCS(=O)(=O)CC2)c(NC(=O)Nc2ccc(Cl)cc2)s1 [Example 3, 1-[5-tert-butyl-3-(1,1-dioxo-1λ^6-thiomorpholin-4-ylmethyl)thiophen-2-yl]-3-(4-chlorophenyl)urea], the inhibition at 10 µM was 76 to 100%. Compound CC(C)(C)c1cc(C(=O)N2CCS(=O)(=O)CC2)c(NC(=O)Nc2ccc3ccccc3c2)s1 [Example 4, 1-[5-tert-butyl-3-(1,1-dioxo-1λ^6-thiomorpholine-4-carbonyl)thiophen-2-yl]-3-naphthalen-2-ylurea] has an inhibition at 10 µM of 76 to 100%. CC(C)(C)c1cc(CN2CCS(=O)(=O)CC2)c(NC(=O)Nc2cccc3ccccc23)s1 [Example 5, 1-[5-tert-butyl-3-(1,1-dioxo-1λ^6-thiomorpholin-4-ylmethyl)thiophen-2-yl]-3-naphthalen-1-ylurea] showed an inhibition at 10 µM of 76 to 100%. CC(C)(C)c1cc(CN2CCS(=O)(=O)CC2)c(NC(=O)Nc2ccc3ccccc3c2)s1 [Example 6, 1-[5-tert-butyl-3-(1,1-dioxo-1λ^6-thiomorpholin-4-ylmethyl)thiophen-2-yl]-3-naphthalen-2-ylurea] gave an inhibition at 10 µM of 76 to 100%. Work on CC(C)(C)c1cc(NC(=O)Nc2ccc(Cl)cc2)n(CC(=O)N2CCS(=O)(=O)CC2)n1 [Example 7, 1-{5-tert-butyl-2-[2-(1,1-dioxo-1λ^6-thiomorpholin-4-yl)-2-oxoethyl]-2H-pyrazol-3-yl}-3-(4-chlorophenyl)urea] yielded an inhibition at 10 µM of 51 to 75%. Work on CC(C)(C)c1cc(NC(=O)Nc2cccc3ccccc23)n(CC(=O)N2CCS(=O)(=O)CC2)n1 [Example 9, 1-{5-tert-butyl-2-[2-(1,1-dioxo-1λ^6-thiomorpholin-4-yl)-2-oxoethyl]-2H-pyrazol-3-yl}-3-naphthalen-1-ylurea] yielded an inhibition at 10 µM of 51 to 75%. With CC(C)(C)c1cc(NC(=O)Nc2ccc(Cl)cc2)c(C(=O)N2CCS(=O)(=O)CC2)s1 [Example 10, 1-[5-tert-butyl-2-(1,1-dioxo-1λ^6-thiomorpholine-4-carbonyl)thiophen-3-yl]-3-(4-chlorophenyl)urea] the inhibition at 10 µM was 76 to 100%. CC(C)(C)c1cc(NC(=O)Nc2cccc3ccccc23)c(C(=O)N2CCS(=O)(=O)CC2)s1 [Example 11, 1-[5-tert-butyl-2-(1,1-dioxo-1λ^6-thiomorpholine-4-carbonyl)thiophen-3-yl]-3-naphthalen-1-ylurea] was tested, and the inhibition at 10 µM was 76 to 100%. In the case of CC(C)(C)c1cc(NC(=O)Nc2ccc3ccccc3c2)c(C(=O)N2CCS(=O)(=O)CC2)s1 [Example 12, 1-[5-tert-butyl-2-(1,1-dioxo-1λ^6-thiomorpholine-4-carbonyl)thiophen-3-yl]-3-naphthalen-2-ylurea], the inhibition at 10 µM is reported as 76 to 100%. CC(C)(C)c1cc(NC(=O)Nc2ccc3ccccc3c2)c(CN2CCS(=O)(=O)CC2)s1 [Example 13, 1-[5-tert-butyl-2-(1,1-dioxo-1λ^6-thiomorpholin-4-ylmethyl)thiophen-3-yl]-3-naphthalen-2-ylurea] gave an inhibition at 10 µM of 26 to 50%. CC(C)(C)c1cc(NC(=O)Nc2cccc3ccccc23)c(CN2CCS(=O)(=O)CC2)s1 [Example 14, 1-[5-tert-butyl-2-(1,1-dioxo-1λ^6-thiomorpholin-4-ylmethyl)thiophen-3-yl]-3-naphthalen-1-ylurea] showed an inhibition at 10 µM of 0 to 25%. CC(C)(C)c1cc(NC(=O)Nc2ccc(Cl)cc2)c(CN2CCS(=O)(=O)CC2)s1 [Example 15, 1-[5-tert-butyl-2-(1,1-dioxo-1λ^6-thiomorpholin-4-ylmethyl)thiophen-3-yl]-3-(4-chlorophenyl)urea] gave an inhibition at 10 µM of 51 to 75%.
